Experimental data as given in publication PMC8780828 (Viruses, 2021).

Assays:
[1] = tested on: NL4-3∆Env-NanoLuc/SARS-CoV-2 mutant pseudovirus P681H; assay type: cell-based
[2] = tested on: NL4-3∆Env-NanoLuc/SARS-CoV-2 mutant pseudovirus ∆69–70; assay type: cell-based
[3] = biological target: SARS-CoV-2 spike (active trimer) His-tag (Severe acute respiratory syndrome coronavirus 2, UniProt P0DTC2, K986P/R682S/R685S/V987P); assay type: binding
[4] = tested on: NL4-3∆Env-NanoLuc/SARS-CoV-2 mutant pseudovirus N501Y; assay type: cell-based
[5] = tested on: NL4-3∆Env-NanoLuc/SARS-CoV-2 mutant pseudovirus D614G/P681R/D950N; assay type: cell-based
[6] = tested on: NL4-3∆Env-NanoLuc/SARS-CoV-2 mutant pseudovirus D950N; assay type: cell-based
[7] = tested on: NL4-3∆Env-NanoLuc/SARS-CoV-2 mutant pseudovirus N501Y/∆69–70/P681H; assay type: cell-based
[8] = tested on: NL4-3∆Env-NanoLuc/SARS-CoV-2 mutant pseudovirus D614G/D950N; assay type: cell-based
[9] = tested on: NL4-3∆Env-NanoLuc/SARS-CoV-2 mutant pseudovirus E484K/D614G; assay type: cell-based
[10] = tested on: NL4-3∆Env-NanoLuc/SARS-CoV-2 mutant pseudovirus E484K/N501Y; assay type: cell-based
[11] = tested on: NL4-3∆Env-NanoLuc/SARS-CoV-2 mutant pseudovirus D614G/P681R; assay type: cell-based
[12] = tested on: NL4-3∆Env-NanoLuc/SARS-CoV-2 mutant pseudovirus N501Y/∆69–70; assay type: cell-based
[13] = tested on: NL4-3∆Env-NanoLuc/SARS-CoV-2 mutant pseudovirus D614G; assay type: cell-based
[14] = tested on: NL4-3∆Env-NanoLuc/SARS-CoV-2 mutant pseudovirus N501Y/D614G; assay type: cell-based
[15] = tested on: NL4-3∆Env-NanoLuc/SARS-CoV-2 mutant pseudovirus E484K; assay type: cell-based
[16] = tested on: NL4-3∆Env-NanoLuc/SARS-CoV-2 mutant pseudovirus E484K/N501Y/D614G; assay type: cell-based

SMILES | IC50 [1] | IC50 [2] | ka [3] | kd [3] | IC50 [4] | IC50 [5] | IC50 [6] | IC50 [7] | IC50 [8] | IC50 [9] | IC50 [10] | IC50 [11] | IC50 [12] | IC50 [13] | IC50 [14] | IC50 [15] | IC50 [16]
O=C(O)c1cc(-c2ccc(/C=C3\SC(=S)N(CCc4ccccc4)C3=O)o2)ccc1Cl [NBCoV1] | 35 ± 0.5 nM | 48 ± 3 nM | 1040 M⁻¹ s⁻¹ | 0.00162 s⁻¹ | 52.5 ± 0.2 nM | 58 ± 7 nM | 47.7 ± 15 nM | 57 ± 0.5 nM | 33 ± 10 nM | 33 ± 0.5 nM | 32 ± 0.5 nM | 49 ± 13 nM | 46 ± 0.5 nM | 56 ± 0.6 nM | 57 ± 2 nM | 42 ± 0.7 nM | 45 ± 2 nM
O=C(O)c1cccc(-c2ccc(/C=C3\SC(=S)N(CCc4ccccc4)C3=O)o2)c1 [NBCoV2] | 51 ± 0.3 nM | 55 ± 0.5 nM | 872 M⁻¹ s⁻¹ | 0.00468 s⁻¹ | 49 ± 0.5 nM | 53 ± 12 nM | 88.7 ± 6 nM | 79 ± 14 nM | 26 ± 2 nM | 35 ± 0.2 nM | 36 ± 0.4 nM | 65 ± 18 nM | 66 ± 1 nM | 61 ± 0.3 nM | 59 ± 13 nM | 45 ± 0.2 nM | 43 ± 0.5 nM
O=C(O)c1cc(-c2ccc(/C=C3\SC(=S)N(CCc4ccccc4)C3=O)o2)ccc1F [NBCoV3] | 55 ± 0.3 nM | 69 ± 7 nM | – | – | 44.5 ± 0.5 nM | – | – | 232 ± 17 nM | – | 44 ± 0.8 nM | 42 ± 1 nM | – | 94 ± 16 nM | 145 ± 28 nM | 104 ± 1 nM | 80 ± 10.6 nM | 101 ± 2 nM
Cc1ccc(-c2ccc(/C=C3\SC(=S)N(CCc4ccccc4)C3=O)o2)cc1C(=O)O [NBCoV4] | 44 ± 0.4 nM | 53 ± 0.5 nM | – | – | 51 ± 0.4 nM | 239 ± 7 nM | 207 ± 29 nM | 158 ± 31 nM | 77.5 ± 16.5 nM | 44 ± 3 nM | 51 ± 5 nM | 148 ± 30 nM | 53 ± 11 nM | 58 ± 0.4 nM | 77 ± 29 nM | 45 ± 0.4 nM | 43 ± 2.5 nM
Cc1c(C(=O)O)cccc1-c1ccc(/C=C2\SC(=S)N(CCc3ccccc3)C2=O)o1 [NBCoV5] | 1720 ± 215 nM | > 2000 nM | – | – | > 2000 nM | > 2000 nM | > 2000 nM | > 2000 nM | > 2000 nM | 1850 ± 124 nM | > 2000 nM | > 2000 nM | > 2000 nM | 1730 ± 62.5 nM | > 2000 nM | > 2000 nM | > 2000 nM
